From patent US8940350B2, “Cereal compositions comprising high-potency sweeteners” (The Coca-Cola Company, priority 2005, dated 2015) come the findings set out here.

The nature of the data set: Rate of dissolution in H2O at 25° C. of rebaudioside A polymorph and amorphous forms. It is filed as physicochemical. To be noted: grade in words.

For rebaudioside A [Form 1], the “Rate of dissolution in H2O at 25° C.” value is given as “Very low”.
Next, rebaudioside A [Form 2]: “Intermediate”; rebaudioside A [Form 3]: “High”.
Consider rebaudioside A [Form 4], for which the “Rate of dissolution in H2O at 25° C.” value was “High”.
